Where a name gives a salt, the structure may show the parent alone. Read-outs that look alike come from different tables or passages of the source.
Assays:
[1] = cited from earlier work
phospholipidosis = details: cited from earlier work
[2] = target: T1, recombinant mouse LPLA2 (PLA2G15) (Mus musculus, UniProt Q8VEB4); experiment: Transacylase activity of LPLA2 (1-O-acyl-N-acetylsphingosine synthase, cell-free liposome assay); format: biochemical
T1 construct: purchased Proteos Inc. (Kalamazoo, MI)
T1 sequence (Q8VEB4 34-412): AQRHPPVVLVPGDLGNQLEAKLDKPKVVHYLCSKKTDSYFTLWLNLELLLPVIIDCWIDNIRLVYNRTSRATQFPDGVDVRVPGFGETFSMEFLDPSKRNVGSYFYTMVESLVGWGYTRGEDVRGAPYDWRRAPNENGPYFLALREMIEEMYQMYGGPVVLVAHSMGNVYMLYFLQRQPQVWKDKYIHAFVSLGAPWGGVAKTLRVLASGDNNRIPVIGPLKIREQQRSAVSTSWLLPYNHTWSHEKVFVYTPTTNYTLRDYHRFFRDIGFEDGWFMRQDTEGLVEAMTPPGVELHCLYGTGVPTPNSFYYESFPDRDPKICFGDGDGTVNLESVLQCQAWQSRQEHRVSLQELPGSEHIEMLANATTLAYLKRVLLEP

LPLA2 = target: T2, LPLA2 (Mus musculus, UniProt Q8VEB4); experiment: LPLA2 thermal stability measurement (SYPRO Orange Tm); format: binding
T2 construct: purchased Proteos Inc. (Kalamazoo, MI)
T2 sequence (Q8VEB4 34-412): T1 sequence (Q8VEB4 34-412)

[3] = ref Pubchem and chEMBL databases
[4] = phospholipidosis reported in vitro, Refs of Table 1
[5] = 1-O-acyl N-acetylsphingosine synthase activity, pH 4.5, DOPC/sulfatide liposomes, read-out: LPLA2 IC50

Row | Structure (SMILES) | pKa (basic) [1, 3] | In Vitro PLD (phospholipidosis; [4]) | IC50 [2, 5] | (ΔTm)c-(ΔTm)d, difference in melting temperature of LPLA2 alone or in the presence of drug (LPLA2; N=3 ± SD) | other results
1 | COc1ccc(CCN2CCC(Nc3nc4ccccc4n3Cc3ccc(F)cc3)CC2)cc1 [Astemizole, 1-(4-fluorobenzyl)-2-(1-[4-methoxyphenethyl]piperidin-4-yl)aminobenzimidazole] | 8.75 | Yes | – | – | –
2 | CC(C)COCC(CN(Cc1ccccc1)c1ccccc1)N1CCCC1.Cl (centres unmarked) [Bepridil hydrochloride, 1-isobutoxy-2-pyrrolidino-3-(N-benzylanilino) propane hydrochloride] | 9.16 | – | 7.17 µM | – | In Vitro PLD (phospholipidosis): Yes
3 | CC(C)(C)c1ccc(CN2CCN(C(c3ccccc3)c3ccc(Cl)cc3)CC2)cc1 (centres unmarked) [Buclizine, 1-((4-chlorophenyl)phenylmethyl)-4-((4-(1,1-dimethylethyl)phenyl)methyl)piperazine] | 8.04 | – | 9.13 µM | 0.63 ± 0.1 °C | –
4 | CN1CCC[C@@H]1CCO[C@](C)(c1ccccc1)c1ccc(Cl)cc1 [Clemastine] | 9.55 | Yes | – | – | –
5 | CC(C)(C)NCC(O)c1cc(Cl)c(N)c(Cl)c1.Cl (stereo not drawn) [Clenbuterol, 4-amino-3,5-dichloro-α-[[(1,1-dimethylethyl)amino]methyl]-benzenemethanol, monohydrochloride] | – | Yes | – | 1.20 ± 0.23 °C | LPLA2 inhibition (in words) [2]: millimolar concentrations; IC50 ([2]; LPLA2 IC50): 7300 µM
6 | CC(C)N=c1cc2n(-c3ccc(Cl)cc3)c3ccccc3nc-2cc1Nc1ccc(Cl)cc1 [Clofazimine, N,5-bis(4-chlorophenyl)-3,5-dihydro-3-(isopropylimino)phenazin-2-amine] | – | Yes | 10.8 µM | -0.97 ± 0.1 °C | –
7 | CN(C)CCOC(c1ccccc1)c1ccccc1 [Diphenhydramine] | – | Yes | – | – | –
8 | CC[C@H]1OC(=O)[C@H](C)[C@@H](O[C@H]2C[C@@](C)(OC)[C@@H](O)[C@H](C)O2)[C@H](C)[C@@H](O[C@@H]2O[C@H](C)C[C@H](N(C)C)[C@H]2O)[C@](C)(O)C[C@@H](C)C(=O)[C@H](C)[C@@H](O)[C@]1(C)O [Erythromycin, (3R,4S,5S,6R,7R,9R,11R,12R,13S,14R)-6-{[(2S,3R,4S,6R)-4-(dimethylamino)-3-hydroxy-6-methyloxan-2-yl]oxy}-14-ethyl-7,12,13-trihydroxy-4-{[(2R,4R,5S,6S)-5-hydroxy-4-methoxy-4,6-dimethyloxan-2-yl]oxy}-3,5,7,9,11,13-hexamethyl-1-oxacyclotetradecane-2,10-dione] | 8.38 | – | 117 µM | -0.48 ± 0.4 °C | –
9 | CC(C)OC(=O)C(C)(C)Oc1ccc(C(=O)c2ccc(Cl)cc2)cc1 [Fenofibrate, 2-[4-(4-chlorobenzoyl)phenoxy]-2-methylpropanoic acid isopropyl ester] | -4.9 | – | 2.25 µM | 0.44 ± 0.7 °C | –
10 | O=C(O)c1cc(O)ccc1O [Gentisic acid, 2,5-dihydroxybenzoic acid sodium salt] | – | Yes | – | – | –
11 | C[C@]12CCC(=O)C=C1CC[C@@H]1[C@@H]2[C@@H](O)C[C@@]2(C)[C@H]1CC[C@]2(O)C(=O)CO [Hydrocortisone] | – | – | – | 1.11 ± 0.1 °C | pKa (basic) ([1]; ref Pubchem and chEMBL database): -2.8; IC50 ([2]; LPLA2 dependent 1-O-acyl N-acetylsphingosine synthase activity, read-out: LPLA2 IC50): 402 µM
12 | CN1CCC(=C2c3ccccc3CC(=O)c3sccc32)CC1 [Ketotifen] | – | Yes | 19.7 µM | 0.10 ± 0.0 °C | –
13 | CCOC(=O)N1CCC(=C2c3ccc(Cl)cc3CCc3cccnc32)CC1 [Loratadine, ethyl 4-{13-chloro-4-azatricyclo[9.4.0.0^3,^8]pentadeca-1(11),3(8),4,6,12,14-hexaen-2-ylidene}piperidine-1-carboxylate] | – | Yes | 8.94 µM | – | –
14 | CCN(CCCCOC(=O)c1ccc(OC)c(OC)c1)C(C)Cc1ccc(OC)cc1 (centres unmarked) [Mebeverine, 4-{ethyl[1-(4-methoxyphenyl)propan-2-yl]amino}butyl 3,4-dimethoxybenzoate] | 10.31 | – | 417 µM | -0.05 ± 0.5 °C | –
15 | CC12CC3CC(C)(C1)CC(N)(C3)C2.Cl [Memantine, 3,5-Dimethyl-1-adamantanamine hydrochloride] | – | Yes | 35.7 µM | 2.00 ± 0.2 °C | –
16 | CN(C)CCN(Cc1cccs1)c1ccccn1 [Methapyrilene, N-[2-(dimethylamino)ethyl]-N-[(thiophen-2-yl)methyl]pyridin-2-amine] | 8.85 | Yes | – | – | –
17 | CN1CCN2c3ccccc3Cc3ccccc3C2C1 (centres unmarked) [Mianserin, 5-methyl-2,5 diazatetracyclo [13.4.0.0^2,^7.0^8,^1³] nonadeca-1(19),8,10,12,15,17-hexaene] | 6.9 | Yes | – | – | –
18 | CC#C[C@]1(O)CC[C@H]2[C@@H]3CCC4=CC(=O)CCC4=C3[C@@H](c3ccc(N(C)C)cc3)C[C@@]21C [Mifepristone, (1S,3aS,3bS,10R,11aS)-10-[4-(dimethylamino)phenyl]-1-hydroxy-11a-methyl-1-(prop-1-yn-1-yl)-1H,2H,3H,3aH, 3bH,4H,5H,7H,8H, 9H,10H,11H,11aH-cyclopenta[a]phenanthren-7-one] | 4.89 | – | 27.7 µM | – | (ΔTm)c-(ΔTm)d, difference in melting temperature of LPLA2 alone or in the presence of drug (LPLA2): 0.20 ± 0.0 °C
19 | CN1CCN2c3ncccc3Cc3ccccc3C2C1 (centres unmarked) [Mirtazapine, 5-methyl-2,5,19-triazatetracyclo [13.4.0.0^2,^7.0^8,^1³] nonadeca-1(15),8,10,12,16,18-hexaene] | 6.67 | – | 8.7 µM | -1.30 ± 0.7 °C | –
20 | Clc1ccc(C(c2ccccc2Cl)C(Cl)Cl)cc1 (centres unmarked) [Mitotane, 1-chloro-4-[2,2-dichloro-1-(2-chlorophenyl)ethyl] benzene] | – | Yes | 132 µM | – | (ΔTm)c-(ΔTm)d, difference in melting temperature of LPLA2 alone or in the presence of drug (LPLA2): 0.47 ± 0.1 °C
21 | c1ccc2c(CC3=NCCN3)cccc2c1 [Naphazoline, 2-(naphthalen-1-ylmethyl)-4,5-dihydro-1H-imidazole] | 10.19 | Yes | – | – | –
22 | CCN(CC)CC#CCOC(=O)C(O)(c1ccccc1)C1CCCCC1 (stereo not drawn) [Oxybutynin, α-phenylcyclohexaneglycolic acid 4-(diethylamino)-2-butynyl ster hydrochloride] | 8.77 | Yes | – | – | –
23 | OCCN1CCN(CCCN2c3ccccc3Sc3ccc(Cl)cc32)CC1 [Perphenazine] | 8.21 | – | – | – | (ΔTm)c-(ΔTm)d, difference in melting temperature of LPLA2 alone or in the presence of drug (LPLA2): -0.41 ± 0.2 °C; IC50 ([2]; LPLA2 IC50, 1-O-acyl N-acetylsphingosine synthase activity, pH 4.5, DOPC/sulfatide liposomes): 3.92 µM
24 | CCOc1ccc(NC(C)=O)cc1 [Phenacetin, N-(4-ethoxyphenyl) acetamide] | -4.2 | – | 2140 µM | -2.30 ± 0.6 °C | –
25 | CCCN(CCC)CCc1cccc2c1CC(=O)N2 [Ropinirole, 4-[2-(dipropylamino)ethyl]-2,3-dihydro-1H-indol-2-one] | 10.17 | Yes | – | – | –
26 | O=C(CCCN1CCC2(CC1)C(=O)NCN2c1ccccc1)c1ccc(F)cc1 [Spiperone, 8-[3-(p-fluor benzoyl)propyl]-1-phenyl-1,3,8-triazaspiro [4.5]decan-4-one] | – | Yes | 519 µM | 1.86 ± 0.1 °C | –
27 | CC1=C(CC(=O)O)c2cc(F)ccc2/C1=C\c1ccc([S+](C)[O-])cc1 (centres unmarked) [Sulindac, 2-[(1Z)-5-fluoro-1-[(4-methanesulfinylphenyl)methylidene]-2-methyl-1H-inden-3-yl]acetic acid] | – | Yes | 10.9 µM | -0.10 ± 0.0 °C | –
28 | Nc1c2c(nc3ccccc13)CCCC2 [Tacrine, 1,2,3,4-tetrahydroacridin-9-amine] | – | – | – | – | In Vitro PLD (phospholipidosis): Yes

From article PMC8243516, “Inhibition of lysosomal phospholipase A2 predicts drug-induced phospholipidosis” (Journal of Lipid Research, 2021)
